Experimental data from patent US8569296B2, “PI3K (delta) selective inhibitors” (Xcovery Holding Company, LLC, priority 2009, dated 2013).
Read-outs that look alike come from different tables or passages of the source.

What was measured:
Assay in all cases: Kinase binding assay (kinase-tagged T7 phage / qPCR, Ambit Biosciences)
PI3Kγ = target: T1, PI3Kγ (Homo sapiens, UniProt P48736); conditions: read-out: inhibitory activity (IC50) against PI3Kγ
T1 construct: purchased Ambit Biosciences; host or cells: E. coli BL21-derived host (T7 phage) or HEK-293
Experimental: (§1) Assays were performed as described in Fabian et al. (2005) Nature Biotechnology, vol. 23, p. 329 and in Karaman et al. (2008) Nature Biotechnology, vol. 26, p. 127.
(§2) Kinase assays. For most assays, kinase-tagged T7 phage strains were grown in parallel in 24-well blocks in an E. coli host derived from the BL21 strain. E. coli were grown to log-phase and infected with T7 phage from a frozen stock (multiplicity of infection ˜0.1) and incubated with shaking at 32° C. until lysis (˜90 minutes). The lysates were centrifuged (6,000×g) and filtered ([…]) to remove cell debris. The remaining kinases were produced in HEK-293 cells and subsequently tagged with DNA for qPCR detection. Streptavidin-coated magnetic beads were treated with biotinylated small molecule ligands for 30 minutes at room temperature to generate affinity resins for kinase assays. The liganded beads were blocked with excess biotin and washed with blocking buffer (SeaBlock (Pierce), 1% BSA, 0.05% Tween 20, 1 mM DTT) to remove unbound ligand and to reduce non-specific phage binding. Binding reactions were assembled by combining kinases, liganded affinity beads, and test compounds in 1× binding buffer (20% SeaBlock, 0.17×PBS, 0.05% Tween 20, 6 mM DTT). Test compounds were prepared as 40× stocks in 100% DMSO and directly diluted into the assay. All reactions were performed in polypropylene 384-well plates in a final volume of 0.04 ml. The assay plates were incubated at room temperature with shaking for 1 hour and the affinity beads were washed with wash buffer (1×PBS, 0.05% Tween 20). The beads were then re-suspended in elution buffer (1×PBS, 0.05% Tween 20, 0.5 mM non-biotinylated affinity ligand) and incubated at room temperature with shaking for 30 minutes. The kinase concentration in the eluates was measured by qPCR.
(§3) Compounds were tested using the above assay at Ambit Biosciences (San Diego, Calif., USA).

PI3Kα = target: T2, PI3Kα (Homo sapiens, UniProt P42336); conditions: read-out: inhibitory activity (IC50) against PI3Kα
T2 construct: purchased Ambit Biosciences; host or cells: E. coli BL21-derived host (T7 phage) or HEK-293
Experimental: as §1, §2, §3

PI3Kδ = target: T3, PI3Kδ (Homo sapiens, UniProt O00329)
T3 construct: purchased Ambit Biosciences; host or cells: E. coli BL21-derived host (T7 phage) or HEK-293
T3 sequence (O00329 1-1044): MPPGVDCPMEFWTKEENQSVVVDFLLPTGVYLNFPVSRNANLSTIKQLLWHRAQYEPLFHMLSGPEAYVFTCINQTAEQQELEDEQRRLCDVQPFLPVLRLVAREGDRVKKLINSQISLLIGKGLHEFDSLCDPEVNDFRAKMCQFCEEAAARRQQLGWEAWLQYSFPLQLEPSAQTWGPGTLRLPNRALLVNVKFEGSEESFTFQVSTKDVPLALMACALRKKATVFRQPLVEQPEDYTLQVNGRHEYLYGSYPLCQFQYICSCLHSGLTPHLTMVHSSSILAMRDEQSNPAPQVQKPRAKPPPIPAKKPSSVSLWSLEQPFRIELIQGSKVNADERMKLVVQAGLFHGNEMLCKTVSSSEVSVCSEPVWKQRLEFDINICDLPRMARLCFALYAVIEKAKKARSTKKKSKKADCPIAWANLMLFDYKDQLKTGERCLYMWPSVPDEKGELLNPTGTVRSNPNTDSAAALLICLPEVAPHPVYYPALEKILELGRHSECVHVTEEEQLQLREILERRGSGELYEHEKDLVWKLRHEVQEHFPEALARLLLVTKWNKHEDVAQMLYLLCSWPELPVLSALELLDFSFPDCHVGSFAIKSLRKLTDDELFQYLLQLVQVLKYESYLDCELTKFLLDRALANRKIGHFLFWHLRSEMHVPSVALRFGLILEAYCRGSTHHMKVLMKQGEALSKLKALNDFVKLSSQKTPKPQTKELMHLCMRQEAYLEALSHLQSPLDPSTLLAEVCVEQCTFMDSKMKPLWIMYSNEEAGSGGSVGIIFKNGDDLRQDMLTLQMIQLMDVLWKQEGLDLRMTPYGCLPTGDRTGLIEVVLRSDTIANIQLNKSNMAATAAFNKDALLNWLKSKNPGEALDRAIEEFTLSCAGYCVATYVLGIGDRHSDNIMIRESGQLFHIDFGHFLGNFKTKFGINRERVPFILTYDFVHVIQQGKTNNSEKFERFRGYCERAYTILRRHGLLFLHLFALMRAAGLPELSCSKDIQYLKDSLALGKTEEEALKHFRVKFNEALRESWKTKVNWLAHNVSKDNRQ
Experimental: as §1, §2, §3

PI3Kβ = target: T4, PI3Kβ (Homo sapiens, UniProt P42338); conditions: read-out: inhibitory activity (IC50) against PI3Kβ
T4 construct: purchased Ambit Biosciences; host or cells: E. coli BL21-derived host (T7 phage) or HEK-293
Experimental: as §1, §2, §3

mTOR = target: T5, mTOR (Homo sapiens, UniProt P42345); conditions: read-out: inhibitory activity (IC50) against mTOR
T5 construct: purchased Ambit Biosciences; host or cells: E. coli BL21-derived host (T7 phage) or HEK-293
Experimental: as §1, §2, §3

T1 sequence (P48736 whole entry): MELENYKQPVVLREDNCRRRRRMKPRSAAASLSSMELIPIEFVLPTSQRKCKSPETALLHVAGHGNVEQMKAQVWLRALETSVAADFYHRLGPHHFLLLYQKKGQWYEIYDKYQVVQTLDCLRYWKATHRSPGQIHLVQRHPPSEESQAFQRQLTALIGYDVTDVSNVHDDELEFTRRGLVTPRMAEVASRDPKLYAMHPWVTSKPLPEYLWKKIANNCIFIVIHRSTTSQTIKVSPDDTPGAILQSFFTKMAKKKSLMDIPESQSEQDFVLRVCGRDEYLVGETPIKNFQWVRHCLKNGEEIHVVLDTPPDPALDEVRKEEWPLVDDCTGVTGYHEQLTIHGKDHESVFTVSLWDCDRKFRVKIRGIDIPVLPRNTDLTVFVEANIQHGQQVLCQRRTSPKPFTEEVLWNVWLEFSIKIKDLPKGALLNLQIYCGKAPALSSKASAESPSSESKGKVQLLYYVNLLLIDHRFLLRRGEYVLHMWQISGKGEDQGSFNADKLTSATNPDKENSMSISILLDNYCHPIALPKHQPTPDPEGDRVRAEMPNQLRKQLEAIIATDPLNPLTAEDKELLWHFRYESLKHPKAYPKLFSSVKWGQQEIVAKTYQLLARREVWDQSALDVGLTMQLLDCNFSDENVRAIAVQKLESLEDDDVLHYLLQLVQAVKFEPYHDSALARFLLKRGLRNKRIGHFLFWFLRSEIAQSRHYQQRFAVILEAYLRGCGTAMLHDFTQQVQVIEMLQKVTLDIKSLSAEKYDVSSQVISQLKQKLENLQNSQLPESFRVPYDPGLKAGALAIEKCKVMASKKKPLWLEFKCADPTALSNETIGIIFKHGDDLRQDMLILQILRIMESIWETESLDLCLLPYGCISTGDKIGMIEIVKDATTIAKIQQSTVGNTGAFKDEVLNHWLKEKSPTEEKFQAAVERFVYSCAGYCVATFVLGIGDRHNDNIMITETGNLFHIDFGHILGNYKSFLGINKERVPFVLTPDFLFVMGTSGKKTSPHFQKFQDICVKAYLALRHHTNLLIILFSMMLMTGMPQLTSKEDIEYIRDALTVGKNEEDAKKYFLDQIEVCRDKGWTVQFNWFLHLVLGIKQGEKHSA
T2 sequence (P42336 whole entry): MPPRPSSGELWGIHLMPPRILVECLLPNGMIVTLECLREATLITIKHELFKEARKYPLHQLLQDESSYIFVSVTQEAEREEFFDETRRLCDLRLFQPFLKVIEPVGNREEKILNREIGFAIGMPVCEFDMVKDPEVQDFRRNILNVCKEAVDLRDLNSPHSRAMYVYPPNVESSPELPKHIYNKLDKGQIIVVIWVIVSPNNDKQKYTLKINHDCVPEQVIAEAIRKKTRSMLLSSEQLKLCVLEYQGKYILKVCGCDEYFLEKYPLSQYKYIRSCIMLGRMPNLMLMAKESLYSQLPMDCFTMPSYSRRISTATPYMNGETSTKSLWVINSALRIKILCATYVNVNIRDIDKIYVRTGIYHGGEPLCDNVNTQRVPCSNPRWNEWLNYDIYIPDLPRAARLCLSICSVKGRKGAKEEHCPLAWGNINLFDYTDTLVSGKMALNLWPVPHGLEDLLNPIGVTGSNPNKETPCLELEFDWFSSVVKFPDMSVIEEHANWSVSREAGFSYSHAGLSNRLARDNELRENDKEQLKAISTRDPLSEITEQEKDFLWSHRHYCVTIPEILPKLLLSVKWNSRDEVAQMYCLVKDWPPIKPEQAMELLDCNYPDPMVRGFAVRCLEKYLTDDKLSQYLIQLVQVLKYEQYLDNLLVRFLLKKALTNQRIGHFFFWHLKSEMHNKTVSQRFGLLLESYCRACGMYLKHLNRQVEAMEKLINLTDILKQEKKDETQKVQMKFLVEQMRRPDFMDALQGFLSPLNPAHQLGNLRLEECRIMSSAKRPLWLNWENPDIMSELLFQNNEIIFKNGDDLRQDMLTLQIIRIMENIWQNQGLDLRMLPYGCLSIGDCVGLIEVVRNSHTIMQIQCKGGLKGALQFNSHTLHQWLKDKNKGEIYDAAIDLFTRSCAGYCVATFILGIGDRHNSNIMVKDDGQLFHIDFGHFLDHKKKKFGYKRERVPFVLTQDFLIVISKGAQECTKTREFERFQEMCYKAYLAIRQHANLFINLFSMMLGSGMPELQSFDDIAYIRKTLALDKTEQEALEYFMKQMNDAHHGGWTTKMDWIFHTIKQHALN
T4 sequence (P42338 whole entry): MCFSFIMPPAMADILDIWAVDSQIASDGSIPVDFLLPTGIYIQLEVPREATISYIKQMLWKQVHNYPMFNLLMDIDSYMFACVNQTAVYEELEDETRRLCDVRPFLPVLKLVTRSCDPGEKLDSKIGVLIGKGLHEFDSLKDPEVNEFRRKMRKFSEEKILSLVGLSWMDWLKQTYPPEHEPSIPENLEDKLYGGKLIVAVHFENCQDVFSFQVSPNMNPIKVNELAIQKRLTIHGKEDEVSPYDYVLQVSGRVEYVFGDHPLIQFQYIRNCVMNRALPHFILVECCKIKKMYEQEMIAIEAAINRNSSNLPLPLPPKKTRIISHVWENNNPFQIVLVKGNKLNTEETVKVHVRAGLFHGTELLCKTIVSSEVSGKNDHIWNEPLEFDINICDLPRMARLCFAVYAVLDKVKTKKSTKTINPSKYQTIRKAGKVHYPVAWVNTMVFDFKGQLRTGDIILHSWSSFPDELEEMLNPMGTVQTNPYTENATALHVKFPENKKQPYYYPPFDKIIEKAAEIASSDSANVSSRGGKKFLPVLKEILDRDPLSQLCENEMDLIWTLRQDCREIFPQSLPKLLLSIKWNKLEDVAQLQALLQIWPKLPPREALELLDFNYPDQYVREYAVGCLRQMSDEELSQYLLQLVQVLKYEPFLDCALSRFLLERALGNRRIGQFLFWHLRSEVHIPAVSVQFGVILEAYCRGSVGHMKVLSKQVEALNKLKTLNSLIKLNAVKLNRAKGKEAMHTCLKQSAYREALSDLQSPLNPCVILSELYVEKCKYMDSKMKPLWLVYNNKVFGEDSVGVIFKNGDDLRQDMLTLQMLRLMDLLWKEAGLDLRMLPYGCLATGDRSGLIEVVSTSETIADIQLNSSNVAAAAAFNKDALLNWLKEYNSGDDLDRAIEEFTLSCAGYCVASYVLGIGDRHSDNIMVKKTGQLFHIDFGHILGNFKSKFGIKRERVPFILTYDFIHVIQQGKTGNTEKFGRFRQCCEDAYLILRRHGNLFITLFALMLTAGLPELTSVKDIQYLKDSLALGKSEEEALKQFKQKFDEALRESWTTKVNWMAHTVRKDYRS

Row | SMILES | IC50 (PI3Kγ) [nM] | IC50 (PI3Kα) [nM] | IC50 (PI3Kδ; read-out: IC50, inhibition against PI3Kδ) [nM] | IC50 (PI3Kβ) [nM] | IC50 (mTOR) [nM] | IC50 (PI3Kδ) [nM] | inhibition against PI3Kδ (PI3Kδ; at up to 100 nM)
1 | COc1cccc2c1nc(C(F)F)n2-c1nc(N2CCOCC2)nc2c1ncn2C1CCOCC1 [Example 21, 1-(9-(2H-3,4,5,6-tetrahydropyran-4-yl)-2-morpholin-4-ylpurin-6-yl)-2-(difluoromethyl)-4-methoxybenzimidazole] | < 100 | < 100 | < 100 | – | – | – | –
2 | OCCn1cnc2c(-n3c(C(F)F)nc4ccccc43)nc(N3CCOCC3)nc21 [Example 2, 2-{6-[2-(difluoromethyl)benzimidazol-1-yl]-2-morpholin-4-ylpurin-9-yl}ethan-1-ol] | > 100 | > 100 | – | > 100 | > 100 | < 100 | –
3 | Cc1nc2ccccc2n1-c1nc(N2CCOCC2)nc2c1ncn2CCO [Example 2d, reference compound] | – | – | – | – | – | – | did not show significant inhibition
